# Measured values: ChEMBL document CHEMBL1122192, “Nitro and amino derivatives of lucanthone as antitumor agents” (1982)
# How the values were obtained:
# P388 [1] = experiment: In vivo antitumor activity against P-388 lymphocytic leukemia at the dose of 12.5 mg/kg; type: functional, Mus musculus
# P388 [2] = experiment: In vivo antitumor activity against P-388 lymphocytic leukemia at the dose of 25 mg/kg; type: functional, Mus musculus
# P388 [3] = experiment: In vivo antitumor activity against P-388 lymphocytic leukemia at the dose of 50 mg/kg; type: functional, Mus musculus
# P388 [4] = experiment: In vivo antitumor activity against P-388 lymphocytic leukemia at the dose of 100 mg/kg; type: functional, Mus musculus
# P388 [5] = experiment: In vivo antitumor activity against P-388 lymphocytic leukemia at the dose of 200 mg/kg; type: functional, Mus musculus
# P388 [6] = experiment: In vivo antitumor activity against P-388 lymphocytic leukemia at the dose of 200 mg/kg; Toxic; type: functional, organism-based; design: dose 200 mg/kg; conditions: Mus musculus
SMILES,T/C (P388 [1]),T/C (P388 [2]),T/C (P388 [3]),T/C (P388 [4]),T/C (P388 [5]),T/C (P388 [6])
CCN(CC)CCNc1ccc(C)c2sc3ccc(N)cc3c(=O)c12,120,103,138,–,–,–
CCN(CC)CCNc1ccc(N)c2sc3ccccc3c(=O)c12,–,–,107,122,125,–
CN(C)CCNc1ccc([N+](=O)[O-])c2sc3ccccc3c(=O)c12,114,135,143,103,–,–
CN(C)CCNc1ccc(N)c2sc3ccccc3c(=O)c12,–,–,100,121,–,Toxic
CCN(CC)CCNc1ccc(C)c2sc3c(N)cccc3c(=O)c12,–,–,100,113,123,–
O=c1c2ccccc2sc2c([N+](=O)[O-])ccc(NCCNCCO)c12,133,141,120,–,–,–
CCN(CC)CCNc1ccc([N+](=O)[O-])c2sc3ccccc3c(=O)c12,–,–,142,145,178,–
Nc1ccc(NCCNCCO)c2c(=O)c3ccccc3sc12,–,–,132,–,–,–
